From patent publication US10689390B2, “Tricyclic fused derivatives of 1-(cyclo)alkyl pyridin-2-one useful for the treatment of cancer” (JUBILANT BIOSYS LIMITED, priority 2015, dated 2020) come the findings set out here.

For experiment [1], the target named is BRD4-BD1 (Homo sapiens (Human), UniProt O60885). Kind of experiment: BRD4 AlphaLISA (Perkin Elmer). The format is binding. The note with it: 5 nM BRD4-BD1, 12 nM biotinylated substrate, read-out: BRD4_BD1 IC50_μM. The protocol: BRD4 AlphaLISA (Perkin Elmer)
Compounds were diluted by step-down dilution method (final concentration of DMSO was 1%) and added to the wells of a 384 well opti plate at desired concentrations. 5 nM BDR4-BD1 enzyme (produced in-house) and 12 nM of biotinylated substrate were added to the wells, covered and incubated at room temperature (RT) for 1 h. At the end of 1 h 250 ng of GSH acceptor beads were added to the well and incubated for 1 h at RT; then 500 ng of streptavidin donor beads were added and incubated again for 1 h at RT. Plates were read in a Pherastar reader at 680 nm excitation and 570 nm emission. As detailed above, compounds were tested for both BRD4 enzyme inhibitory activities and IC50 were determined.

For experiment [2], the system named is AML cell line MV4-11. Kind of experiment: Anticancer activity: Alamar Blue 3-day proliferation assay. The experiment is classed as cell-based. The note with it: Homo sapiens, MV4-11 cells, 72 h incubation, read-out: MV4-11 EC50_μM. As to the method:
Anticancer Activity: Alamar Blue Assay
The impact of the compounds on cancer cell proliferation was determined using the AML cell line MV4-11 (ATCC) in a 3-day proliferation assay. MV4-11 cells were maintained in RPMI supplemented with 10% FBS at 37° C., 5% CO2. For compound testing, MV4-11 cells were plated in a 96-well black bottom plate at a density of 15,000 cells/well in 100 μL culture media and incubated at 37° C. overnight. Compound dilution series were prepared in DMSO via a 3-fold serial dilution from […]. The DMSO dilution series were then diluted with media, with the final compound concentrations added to the wells ranging from […]. […] The fluorescent readings from the Alamar Blue assay were normalized to the DMSO treated cells and analyzed using the GraphPad Prism software with sigmoidal curve fitting to obtain EC50.

For the molecule `CCOC(=O)CC1OC(c2ccc(Cl)cc2)c2cc(OC)ccc2-c2cn(C)c(=O)cc21` (racemic) [Compound 1, ±Ethyl 2-(-7-(4-chlorophenyl)-9-methoxy-2-methyl-3-oxo-2,3,5,7-tetrahydrobenzo[5,6]oxepino[4,3-c]pyridin-5-yl)acetate], the IC50 in experiment [1] came out at 24 nM.
As to `CCOC(=O)CC1OC(C2CCCCC2)c2cc(OC)ccc2-c2cn(C)c(=O)cc21` (racemic) [Compound 2, ±Ethyl-2-(7-cyclohexyl-9-methoxy-2-methyl-3-oxo-2,3,5,7-tetrahydrobenzo[5,6]oxepino[4,3-c]pyridin-5-yl)acetate], the EC50 in experiment [2] amounted to 1 nM. Besides, in experiment [1], the IC50 came to 10 nM.
In the same order, the values of `CCNC(=O)CC1OC(c2ccc(C)cn2)c2cc(OC)ccc2-c2cn(C)c(=O)cc21` (racemic) [Compound 11, ±2-(9-methoxy-2-methyl-7-(5-methylpyridin-2-yl)-3-oxo-2,3,5,7-tetrahydrobenzo[5,6]oxepino[4,3-c]pyridin-5-yl)-N-ethylacetamide] are 175 nM and 61 nM.
On to `CCOC(=O)CC1N=C(c2ccc(Cl)cc2)c2cc(OC)ccc2-c2cn(C)c(=O)cc21` (racemic) [Compound 14, ±-Ethyl-2-(7-(4-chlorophenyl)-9-methoxy-2-methyl-3-oxo-3,5-dihydro-2H-benzo[c]pyrido[3,4-e]azepin-5-yl)acetate], for which, in experiment [2], the EC50 was found to be 2 nM.
Turning to `CCOC(=O)CC1N=C(C(F)(F)F)c2cc(OC)ccc2-c2cn(C)c(=O)cc21` (racemic) [Compound 18, ±Ethyl-2-(9-methoxy-2-methyl-3-oxo-7-(trifluoromethyl)-3,5-dihydro-2H-benzo[c]pyrido[3,4-e]azepin-5-yl)acetate], the IC50 in experiment [1] is 122 nM.
Regarding `CCOC(=O)CC1N=C(C)c2cc(OC)ccc2-c2cn(C)c(=O)cc21` (racemic) [Compound 19, ±Ethyl-2-(9-methoxy-2,7-dimethyl-3-oxo-3,5-dihydro-2H-benzo[c]pyrido[3,4-e]azepin-5-yl)acetate], the IC50 in experiment [1] was determined as 176 nM.
`CCOC(=O)CC1N=C(c2c(F)cccc2F)c2cc(OC)ccc2-c2cn(C)c(=O)cc21` (racemic) [Compound 23, ±Ethyl-2-(7-(2,6-difluorophenyl)-9-methoxy-2-methyl-3-oxo-3,5-dihydro-2H-benzo[c]pyrido[3,4-e]azepin-5-yl)acetate]: the EC50 in experiment [2] was 5 nM. Moreover, the IC50 in experiment [1] turned out to be 1 nM.
Regarding `CCNC(=O)CC1N=C(c2ccc(Cl)cc2)c2cc(OC)ccc2-c2cn(C)c(=O)cc21` (racemic) [Compound 25, ±2-(7-(4-chlorophenyl)-9-methoxy-2-methyl-3-oxo-3,5dihydro-2H-benzo[c]pyrido[3,4-e]azepin-5-yl)-N-ethylacetamide], the EC50 in experiment [2] turned out to be 3 nM.
On to `CCNC(=O)CC1N=C(C2CCCCC2)c2cc(OC)ccc2-c2cn(C)c(=O)cc21` (racemic) [Compound 26, ±2-(7-cyclohexyl-9-methoxy-2-methyl-3-oxo-3,5-dihydro-2H-benzo[c]pyrido[3,4-e]azepin-5-yl)-N-ethylacetamide], for which the EC50 in experiment [2] turned out to be 8 nM. Besides, in experiment [1], the IC50 turned out to be 2 nM.
Regarding `CCNC(=O)CC1N=C(c2ccccn2)c2cc(OC)ccc2-c2cn(C)c(=O)cc21` (racemic) [Compound 27, ±2-(9-methoxy-2-methyl-3-oxo-7-(pyridin-2-yl)-3,5-dihydro-2H-benzo[c]pyrido[3,4-e]azepin-5-yl)-N-ethylacetamide], the EC50 in experiment [2] is 112 nM. In experiment [1], the IC50 was 4.4 nM.
As for `COc1ccc2c(c1)C(c1ccc(Cl)cc1)=NC(CC(N)=O)c1cc(=O)n(C)cc1-2` (racemic) [Compound 28, ±2-(7-(4-chlorophenyl)-9-methoxy-2-methyl-3-oxo-3,5-dihydro-2H-benzo[c]pyrido[3,4-e]azepin-5-yl)acetamide], in experiment [2], the EC50 is 326 nM. For the same molecule, the IC50 in experiment [1] worked out at 36 nM.
For the molecule `CCNC(=O)CC1N=C(CC2CC2)c2cc(OC)ccc2-c2cn(C)c(=O)cc21` (racemic) [Compound 30, ±2-(7-(cyclopropylmethyl)-9-methoxy-2-methyl-3-oxo-3,5-dihydro-2H-benzo[c]pyrido[3,4-e]azepin-5-yl)-N-ethylacetamide], the EC50 in experiment [2] amounted to 118 nM. For the same molecule, the IC50 in experiment [1] amounted to 10 nM.
In the case of `CCNC(=O)CC1N=C(C(F)(F)F)c2cc(OC)ccc2-c2cn(C)c(=O)cc21` (racemic) [Compound 32, ±2-(9-methoxy-2-methyl-3-oxo-7-(trifluoromethyl)-3,5-dihydro-2H-benzo[c]pyrido[3,4-e]azepin-5-yl)-N-ethylacetamide], in experiment [2], the EC50 worked out at 108 nM. For the same molecule, in experiment [1], the IC50 was 49 nM.
For the molecule `CCNC(=O)CC1N=C(c2ccc(Cl)cc2)c2cc(C(F)(F)F)ccc2-c2cn(C)c(=O)cc21` (racemic) [Compound 35, ±2-(7-(4-chlorophenyl)-2-methyl-3-oxo-9-(trifluoromethyl)-3,5-dihydro-2H-benzo[c]pyrido[3,4-e]azepin-5-yl)-N-ethylacetamide], in experiment [2], the EC50 turned out to be 40 nM. In experiment [1], the IC50 is 77 nM.
In the same order, the values of `CCNC(=O)CC1N=C(c2ccc(Cl)cc2)c2cc(F)ccc2-c2cn(C)c(=O)cc21` (racemic) [Compound 37, ±2-(7-(4-chlorophenyl)-9-fluoro-2-methyl-3-oxo-3,5-dihydro-2H-benzo[c]pyrido[3,4-e]azepin-5-yl)-N-ethylacetamide] are 28 nM and 4 nM.
For `CCNC(=O)CC1N=C(c2c(F)cccc2F)c2cc(OC)ccc2-c2cn(C)c(=O)cc21` (racemic) [Compound 38, ±2-(7-(2,6-difluorophenyl)-9-methoxy-2-methyl-3-oxo-3,5-dihydro-2H-benzo[c]pyrido[3,4-e]azepin-5-yl)-N-ethylacetamide], the EC50 in experiment [2] was 13 nM. Besides, the IC50 in experiment [1] is < 0.5 nM.
In the same order, the values of `CCNC(=O)CC1N=C(c2ccc(Cl)cc2C)c2cc(OC)ccc2-c2cn(C)c(=O)cc21` (racemic) [Compound 39, ±2-(7-(4-chloro,2-methylphenyl)-9-methoxy-2-methyl-3-oxo-3,5-dihydro-2H-benzo[c]pyrido[3,4-e]azepin-5-yl)-N-ethylacetamide] are 8 nM and 4 nM.
As for `CCNC(=O)C[C@H]1O[C@H](c2ccc(Cl)cc2)c2cc(OC)ccc2-c2cn(C)c(=O)cc21` [Compound 8F, 2-((5R,7R)-7-(4-chlorophenyl)-9-methoxy-2-methyl-3-oxo-2,3,5,7-tetrahydrobenzo[5,6]oxepino[4,3-c]pyridin-5-yl)-N-ethylacetamide], the EC50 in experiment [2] was 24 nM. Further, the IC50 in experiment [1] was 12 nM.
